# In publication PMC8890504, “Evolution of Brain-Expressed Biogenic Amine Receptors into Olfactory Trace Amine-Associated Receptors” (Molecular Biology and Evolution, 2022):
# Values joined by “and” are separate entries in the source; they are usually repeats but may differ in a detail not shown here. Identical values can stand only once.
# Legend:
# [1] = molecular target: TARLL1b (Petromyzon marinus, UniProt A0AAJ7TCG4); experiment: Cell-based receptor activation reporter assay (SEAP / Dual-Glo luciferase); parameters: species or system sea lamprey; details: for EC50: TARLL1b
# Protocol: (§1) Fluorescence was measured with a BioTek Microplate reader.
# [2] = molecular target: TARLL4a (Petromyzon marinus, UniProt A0AAJ7T9R0); experiment: as above; parameters: species or system sea lamprey; details: for EC50: TARLL4a; for ligand profile of TARLL4a: ligand library at 100 µM, fig. 4B, fig. S9B
# Protocol: as §1
# [3] = molecular target: mouse HTR4 (Mus musculus, UniProt P97288); experiment: cell-based
# Text: (§2) Next, we conducted high-throughput screening to further explore the functional properties of these aminergic receptors. We cloned 248 TAARs from 11 mammals (human, mouse, rat, guinea pig, hamster, cat, horse, rabbit, sheep, rhesus, and wild boar), two reptiles (alligator and chicken), six teleosts (zebrafish, catfish, fugu, medaka, salmon, and pufferfish), one lobed-finned fish (coelacanth), one holost fish (spotted gar), and one cartilaginous fish (bamboo shark) (fig. 2A). We also cloned eight TARLs from coelacanth, zebrafish, catfish, fugu, medaka, spotted gar, shark, and 28 TARLLs from sea lamprey (supplementary table S2, Supplementary Material online). In addition, we cloned two HTR4s from mouse and zebrafish. We then challenged all of the cloned receptors with a ligand library comprised 97 amines at 100 µM.
# (§3) HEK293 cells were plated onto poly-D-lysine (Sigma–Aldrich) preincubated 96-well plates (Corning) with 50 µl growth medium (DMEM medium with 10% BCS and 5% penicillin–streptomycin solution) and cultured for 18–24 h. Receptor plasmids were cotransfected with Cre-SEAP plasmid using polyethylenimine (PEI, Polysciences) and incubated at 37 °C with 5% CO2. About 4 h later, cells were incubated with or without test compounds diluted in serum-free DMEM for 48 h, followed by incubating for 2 h at 70 °C. After returning to room temperature, 50 µl supernatant from each well was incubated with an equal volume of 0.3 mM 4-methylumbelliferyl phosphate (4-MUP, Sigma–Aldrich) in 2 M diethanolamine bicarbonate (Sigma–Aldrich), pH 10.0 for 15 min. Fluorescence was measured with a BioTek Microplate reader.
# (§4) Hana3A cells were plated onto 96-well plates (Greiner bio-one) with 50 µl growth medium (DMEM medium with 10% BCS and 5% penicillin–streptomycin solution with puromycin) and cultured at 37 °C with 5% CO2. After 18–24 h, cells in each well were cotransfected with 50 ng receptor plasmid, 10 ng CRE-Luc, 10 ng pRL-SV40, and 10 ng mRTPs using Lipofectamine 2000 (Invitrogen), and incubated for 18 h. Medium was then replaced by 25 µl CD293 (Invitrogen) containing 1% glutamine with or without test compounds for 4 h. The chemiluminescence of firefly luciferase and renilla luciferase were measured with a Biotek Microplate reader using the Dual-Glo Luciferase Assay System (Promega).
# [4] = system: TARLL2a (also called TAAR346a); parameters: method as in Scott et al. 2019; details: ref Scott et al. 2019; cited from earlier work
# [5] = system: mouse TAAR9; parameters: method as in Saraiva et al. 2016; details: ref Saraiva et al. 2016; cited from earlier work
# [6] = system: zebrafish TAAR13c; parameters: method as in Hussain et al. 2013; details: ref Hussain et al. 2013; cited from earlier work
# [7] = molecular target: T1, rat TAAR9 (Rattus norvegicus, UniProt Q923Y6); experiment: Cell-based receptor activation reporter assay (SEAP / Dual-Glo luciferase); details: table S3
# T1 construct: bovine rhodopsin N-terminal 20 amino acids (Rho tag); expressed in transfected cells; host or cells: HEK293(T) (SEAP assay) or Hana3A (Dual-Glo assay)
# T1 sequence (Q923Y6 1-338): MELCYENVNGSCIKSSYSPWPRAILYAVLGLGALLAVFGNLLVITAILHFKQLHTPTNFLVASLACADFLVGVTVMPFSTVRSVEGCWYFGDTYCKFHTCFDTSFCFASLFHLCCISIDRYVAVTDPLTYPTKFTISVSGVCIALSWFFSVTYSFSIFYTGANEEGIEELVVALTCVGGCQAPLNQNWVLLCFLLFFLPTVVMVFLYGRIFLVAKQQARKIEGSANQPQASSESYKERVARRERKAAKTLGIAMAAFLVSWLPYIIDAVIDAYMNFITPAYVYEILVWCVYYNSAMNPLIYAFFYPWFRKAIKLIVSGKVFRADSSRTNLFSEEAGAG
# Protocol: as §1
# [8] = molecular target: T2, hamster TAAR9 (Mesocricetus auratus, UniProt A0A1U7R5X1); experiment: as above; details: table S3
# T2 construct: Rho tag (N-terminal 20 aa of bovine rhodopsin); expressed in transfected cells; host or cells: HEK293T (SEAP assay) or Hana3A (Dual-Glo luciferase assay)
# T2 sequence (A0A1U7R5X1 1-348): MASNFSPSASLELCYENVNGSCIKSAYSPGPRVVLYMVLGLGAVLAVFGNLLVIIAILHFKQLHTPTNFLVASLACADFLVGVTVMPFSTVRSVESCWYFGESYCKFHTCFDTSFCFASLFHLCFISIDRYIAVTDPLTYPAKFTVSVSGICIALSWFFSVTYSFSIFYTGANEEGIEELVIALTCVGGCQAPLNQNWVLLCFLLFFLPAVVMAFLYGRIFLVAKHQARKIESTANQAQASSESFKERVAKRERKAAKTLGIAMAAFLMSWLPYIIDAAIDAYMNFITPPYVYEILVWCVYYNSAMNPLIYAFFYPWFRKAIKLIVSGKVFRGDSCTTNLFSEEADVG
# Protocol: as §1
# [9] = molecular target: T3, rabbit TAAR9 (Oryctolagus cuniculus, UniProt G1SUU9); experiment: as above; details: table S3
# T3 construct: Rho tag (N-terminal 20 aa of bovine rhodopsin); expressed in transfected cells; host or cells: HEK293T (SEAP assay) or Hana3A (Dual-Glo luciferase assay)
# T3 sequence (G1SUU9 1-348): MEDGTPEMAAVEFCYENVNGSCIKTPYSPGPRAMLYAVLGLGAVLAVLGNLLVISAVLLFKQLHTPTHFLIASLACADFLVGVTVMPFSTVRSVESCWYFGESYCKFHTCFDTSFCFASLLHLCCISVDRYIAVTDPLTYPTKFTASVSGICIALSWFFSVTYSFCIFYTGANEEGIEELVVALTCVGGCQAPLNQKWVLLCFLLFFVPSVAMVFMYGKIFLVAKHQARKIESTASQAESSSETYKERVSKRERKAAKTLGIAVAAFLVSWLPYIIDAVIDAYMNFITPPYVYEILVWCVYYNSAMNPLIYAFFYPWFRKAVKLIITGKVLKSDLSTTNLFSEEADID
# Protocol: as §1
# [10] = system: cat TAAR9; experiment: as above; details: table S3
# Protocol: as §1
# [11] = molecular target: mouse TAAR1 (Mus musculus, UniProt Q923Y8); experiment: cell-based; details: for response of mouse TAAR1: ligands at 10 µM, luciferase assay, fig. 5B
# Text: as §2
# We then compared the responses of HTR4 from mouse and zebrafish, TARL1 from zebrafish, catfish, fugu, medaka, spotted gar, and coelacanth, TARL2 from coelacanth and shark, TAAR1 from mouse and zebrafish to the 16 ligands at 10 µM (fig. 5B).
# as §3, §4
# [12] = molecular target: hamster TAAR3 (Mesocricetus auratus, UniProt A0A1U7Q6M0); experiment: Cell-based receptor activation reporter assay (SEAP / Dual-Glo luciferase)
# Protocol: as §1
# [13] = molecular target: guinea pig TAAR3 (Cavia porcellus, UniProt H0W7C9); experiment: as above
# Protocol: as §1
# [14] = molecular target: TARLL3h (Petromyzon marinus, UniProt A0A678XJN9); experiment: as above; parameters: species or system sea lamprey; details: for EC50: TARLL3h; for ligand recognition by TARLL3h: fig. 4C
# Protocol: as §1
# [15] = system: TARLL3h Y3.33F; experiment: Site-directed mutagenesis, cell-based receptor activation; parameters: species or system sea lamprey; details: mutation of Tyr3.33 to phenylalanine; ligand per fig. S9C
# Protocol: (§5) Recognition of diamines in TAARs involves two aspartic acids, Asp^3.32 and Asp^5.42 ([Li et al. 2015]; [Sharma et al. 2016]). However, although Asp^3.32 is retained in TARLL3h, Asp^5.42 is not found, implying a distinct diamine recognition mechanism in TARLL3h. To investigate this further, we performed homology modeling and ligand docking in TARLL3h. In addition to Asp^3.32 that forms a salt bridge with N,N,N′,N′-tetramethyl-1,4-butanediamine or N,N,N′,N′-tetramethyl-1,3-propanediamine, Tyr^3.33 binds to the other amino group through pi–cation interactions in TARLL3h (fig. 4D). […] To verify the docking results, we performed site-directed mutagenesis in TARLL3h.
# as §1
# [16] = system: TARLL3h Y3.33A; experiment: as above; parameters: species or system sea lamprey; details: mutation of Tyr3.33 to alanine; ligand per fig. S9C
# Protocol: as §5, §1
# [17] = system: TARLL3h D3.32A; experiment: as above; parameters: species or system sea lamprey; details: mutation of Asp3.32 to alanine; ligand per fig. S9C
# Protocol: as §5, §1
# [18] = molecular target: shark TAARS1b (Chiloscyllium punctatum, UniProt A0A401S5C1); experiment: Cell-based receptor activation reporter assay (SEAP / Dual-Glo luciferase); parameters: species or system bamboo shark
# Protocol: as §1
# [19] = molecular target: sheep TAAR5 (Ovis aries, UniProt A0ACI6PZ16); experiment: as above
# Protocol: as §1
# [20] = molecular target: coelacanth TARL2 (Latimeria chalumnae, UniProt H3AWX3); experiment: as above
# Protocol: as §1
# [21] = molecular target: coelacanth TAARC1b (Latimeria chalumnae, UniProt H3A8V0); experiment: as above
# Protocol: as §1
# [22] = molecular target: zebrafish TAAR1 (Danio rerio, UniProt Q5QNN1); experiment: as above; details: zTAAR1
# Protocol: as §1
# [23] = molecular target: (UniProt Z9G6W3R3V9); experiment: as above; details: coelacanth TARL1
# Protocol: as §1
# [24] = molecular target: zebrafish TARL1 (Danio rerio, UniProt A0A8M1Q794); experiment: as above
# Protocol: as §1
# TARLL3h, sequence (A0A678XJN9 entry or part of it): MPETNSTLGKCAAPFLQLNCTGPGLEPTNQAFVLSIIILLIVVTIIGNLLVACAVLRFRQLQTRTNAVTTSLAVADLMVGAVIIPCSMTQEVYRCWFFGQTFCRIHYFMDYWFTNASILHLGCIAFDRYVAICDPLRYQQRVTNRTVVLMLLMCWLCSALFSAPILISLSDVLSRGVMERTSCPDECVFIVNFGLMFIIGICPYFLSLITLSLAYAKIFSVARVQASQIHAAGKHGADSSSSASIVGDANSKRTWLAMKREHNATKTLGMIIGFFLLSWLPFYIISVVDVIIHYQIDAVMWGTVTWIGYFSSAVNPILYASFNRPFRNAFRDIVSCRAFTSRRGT
# TARLL4a, sequence (A0AAJ7T9R0 entry or part of it): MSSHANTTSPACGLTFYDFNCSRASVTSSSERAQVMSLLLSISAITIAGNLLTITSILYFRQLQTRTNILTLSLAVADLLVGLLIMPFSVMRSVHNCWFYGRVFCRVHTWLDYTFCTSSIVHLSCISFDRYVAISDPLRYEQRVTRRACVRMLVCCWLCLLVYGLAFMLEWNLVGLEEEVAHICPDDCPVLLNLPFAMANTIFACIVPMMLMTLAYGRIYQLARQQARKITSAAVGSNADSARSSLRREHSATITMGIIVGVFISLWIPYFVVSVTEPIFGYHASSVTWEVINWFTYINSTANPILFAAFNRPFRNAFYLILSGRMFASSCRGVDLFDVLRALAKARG
# TARLL1b, sequence (A0AAJ7TCG4 entry or part of it): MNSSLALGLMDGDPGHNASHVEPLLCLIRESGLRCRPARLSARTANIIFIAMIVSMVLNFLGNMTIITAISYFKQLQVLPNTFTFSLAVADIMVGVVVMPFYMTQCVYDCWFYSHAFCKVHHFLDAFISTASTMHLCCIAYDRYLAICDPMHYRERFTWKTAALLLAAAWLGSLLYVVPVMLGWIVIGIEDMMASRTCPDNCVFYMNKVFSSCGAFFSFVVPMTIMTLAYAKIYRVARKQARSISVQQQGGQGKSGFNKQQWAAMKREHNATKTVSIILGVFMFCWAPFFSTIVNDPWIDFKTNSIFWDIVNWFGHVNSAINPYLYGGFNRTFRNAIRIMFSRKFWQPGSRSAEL
# mouse TAAR1, sequence (Q923Y8 whole entry): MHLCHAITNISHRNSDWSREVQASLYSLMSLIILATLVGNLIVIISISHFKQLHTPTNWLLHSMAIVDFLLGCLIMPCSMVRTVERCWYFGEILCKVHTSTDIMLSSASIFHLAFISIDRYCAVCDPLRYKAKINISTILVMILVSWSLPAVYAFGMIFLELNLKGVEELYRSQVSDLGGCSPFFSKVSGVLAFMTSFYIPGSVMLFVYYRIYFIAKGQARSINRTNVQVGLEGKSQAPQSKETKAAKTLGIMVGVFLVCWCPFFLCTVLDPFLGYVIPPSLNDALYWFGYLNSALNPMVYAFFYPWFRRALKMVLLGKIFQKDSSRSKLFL
# hamster TAAR3, sequence (A0A1U7Q6M0 entry or part of it): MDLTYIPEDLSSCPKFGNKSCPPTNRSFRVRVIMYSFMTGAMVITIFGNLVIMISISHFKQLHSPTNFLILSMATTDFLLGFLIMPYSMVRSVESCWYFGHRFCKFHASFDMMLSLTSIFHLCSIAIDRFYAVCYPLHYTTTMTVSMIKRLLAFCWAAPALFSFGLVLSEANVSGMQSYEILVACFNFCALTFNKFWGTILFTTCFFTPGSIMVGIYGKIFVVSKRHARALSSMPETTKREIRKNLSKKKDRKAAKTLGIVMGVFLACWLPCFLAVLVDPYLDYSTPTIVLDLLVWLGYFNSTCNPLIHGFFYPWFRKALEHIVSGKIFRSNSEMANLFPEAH
# coelacanth TAARC1b, sequence (H3A8V0 entry or part of it): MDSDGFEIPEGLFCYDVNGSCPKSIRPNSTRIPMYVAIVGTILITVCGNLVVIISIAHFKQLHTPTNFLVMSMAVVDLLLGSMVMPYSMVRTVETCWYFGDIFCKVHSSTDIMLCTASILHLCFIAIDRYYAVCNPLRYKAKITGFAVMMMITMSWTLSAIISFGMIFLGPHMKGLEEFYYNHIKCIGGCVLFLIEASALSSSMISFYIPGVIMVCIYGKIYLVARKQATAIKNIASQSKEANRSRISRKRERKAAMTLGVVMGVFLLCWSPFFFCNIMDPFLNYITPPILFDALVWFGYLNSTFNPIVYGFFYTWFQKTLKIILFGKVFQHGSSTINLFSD
# guinea pig TAAR3, sequence (H0W7C9 entry or part of it): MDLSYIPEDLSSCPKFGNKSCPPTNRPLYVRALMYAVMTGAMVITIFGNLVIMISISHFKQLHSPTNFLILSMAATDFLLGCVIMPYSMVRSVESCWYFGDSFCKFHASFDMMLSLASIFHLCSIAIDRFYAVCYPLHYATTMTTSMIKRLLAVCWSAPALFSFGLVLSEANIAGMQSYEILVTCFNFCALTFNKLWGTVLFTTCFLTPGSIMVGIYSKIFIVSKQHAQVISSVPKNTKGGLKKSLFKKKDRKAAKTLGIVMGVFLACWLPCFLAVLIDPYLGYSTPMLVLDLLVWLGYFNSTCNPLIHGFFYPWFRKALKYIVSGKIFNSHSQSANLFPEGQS
# sheep TAAR5, sequence (A0ACI6PZ16 entry or part of it): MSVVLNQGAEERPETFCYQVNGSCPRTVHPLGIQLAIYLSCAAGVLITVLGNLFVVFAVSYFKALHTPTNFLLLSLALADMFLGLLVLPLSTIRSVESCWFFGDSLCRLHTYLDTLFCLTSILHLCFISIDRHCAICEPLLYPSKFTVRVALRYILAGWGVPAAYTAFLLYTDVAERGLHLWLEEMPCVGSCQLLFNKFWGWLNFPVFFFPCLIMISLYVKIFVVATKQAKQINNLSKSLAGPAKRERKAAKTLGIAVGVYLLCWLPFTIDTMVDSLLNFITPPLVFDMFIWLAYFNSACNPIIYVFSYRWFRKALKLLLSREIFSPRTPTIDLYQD
# zebrafish TAAR1, sequence (Q5QNN1 entry or part of it): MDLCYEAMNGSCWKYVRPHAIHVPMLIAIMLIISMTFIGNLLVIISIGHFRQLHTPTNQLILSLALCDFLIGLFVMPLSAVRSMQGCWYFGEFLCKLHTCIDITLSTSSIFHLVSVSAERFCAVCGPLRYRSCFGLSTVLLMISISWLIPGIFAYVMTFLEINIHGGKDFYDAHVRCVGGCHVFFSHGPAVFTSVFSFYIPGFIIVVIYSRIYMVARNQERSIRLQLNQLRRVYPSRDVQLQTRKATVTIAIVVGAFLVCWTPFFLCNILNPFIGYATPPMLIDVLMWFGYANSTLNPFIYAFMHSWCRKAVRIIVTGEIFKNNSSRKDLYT
# shark TAARS1b, sequence (A0A401S5C1 entry or part of it): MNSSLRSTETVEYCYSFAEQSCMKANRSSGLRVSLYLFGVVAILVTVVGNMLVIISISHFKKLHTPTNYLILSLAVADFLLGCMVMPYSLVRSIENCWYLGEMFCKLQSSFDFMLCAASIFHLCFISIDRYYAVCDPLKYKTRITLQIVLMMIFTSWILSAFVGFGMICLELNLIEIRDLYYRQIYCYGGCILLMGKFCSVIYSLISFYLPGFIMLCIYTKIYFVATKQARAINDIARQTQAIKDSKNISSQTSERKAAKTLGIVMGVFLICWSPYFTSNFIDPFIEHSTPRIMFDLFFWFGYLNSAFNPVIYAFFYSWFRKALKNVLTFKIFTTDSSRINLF
# coelacanth TARL2, sequence (H3AWX3 entry or part of it): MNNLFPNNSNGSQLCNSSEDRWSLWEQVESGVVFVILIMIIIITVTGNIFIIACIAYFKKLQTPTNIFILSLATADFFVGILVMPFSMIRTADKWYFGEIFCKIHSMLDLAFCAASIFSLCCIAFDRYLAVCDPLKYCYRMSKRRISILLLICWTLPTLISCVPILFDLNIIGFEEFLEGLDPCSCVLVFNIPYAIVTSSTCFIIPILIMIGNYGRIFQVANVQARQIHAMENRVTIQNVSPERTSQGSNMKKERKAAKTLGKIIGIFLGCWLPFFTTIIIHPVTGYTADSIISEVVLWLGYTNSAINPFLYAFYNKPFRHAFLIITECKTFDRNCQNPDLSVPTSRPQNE
# zebrafish TARL1, sequence (A0A8M1Q794 entry or part of it): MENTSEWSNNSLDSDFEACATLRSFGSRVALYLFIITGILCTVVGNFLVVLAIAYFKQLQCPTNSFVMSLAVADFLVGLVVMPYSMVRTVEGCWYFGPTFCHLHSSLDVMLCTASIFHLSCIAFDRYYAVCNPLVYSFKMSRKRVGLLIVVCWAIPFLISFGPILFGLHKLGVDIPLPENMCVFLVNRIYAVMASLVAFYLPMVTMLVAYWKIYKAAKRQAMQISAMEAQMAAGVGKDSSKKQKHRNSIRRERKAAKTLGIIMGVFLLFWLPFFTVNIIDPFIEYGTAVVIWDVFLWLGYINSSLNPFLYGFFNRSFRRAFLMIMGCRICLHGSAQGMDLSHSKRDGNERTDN
# mouse HTR4, sequence (P97288 whole entry): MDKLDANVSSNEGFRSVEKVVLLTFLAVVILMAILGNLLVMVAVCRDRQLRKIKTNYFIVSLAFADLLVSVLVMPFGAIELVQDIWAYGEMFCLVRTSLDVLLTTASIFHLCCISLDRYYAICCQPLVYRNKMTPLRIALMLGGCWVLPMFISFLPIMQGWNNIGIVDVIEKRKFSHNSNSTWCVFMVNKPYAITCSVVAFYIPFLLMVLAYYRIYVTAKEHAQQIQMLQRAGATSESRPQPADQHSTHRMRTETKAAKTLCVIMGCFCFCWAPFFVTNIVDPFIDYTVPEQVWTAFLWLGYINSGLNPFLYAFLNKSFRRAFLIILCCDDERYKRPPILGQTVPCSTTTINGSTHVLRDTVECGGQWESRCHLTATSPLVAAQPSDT
smiles,measurement,setting,value
Cn1ccc2ccccc21 [1-methylindole],EC50,[1],162 µM
Cc1c[nH]c2ccccc12 [3-methylindole],EC50,[1],6.6 µM
CSCCCN [3-methylthiopropylamine],EC50,[2],62.4 µM
NCCCCCO [5-amino-1-pentanol],EC50,[2],40.3 µM
COc1ccc2[nH]cc(CCN)c2c1 [5-methoxytryptamine],EC50,[3],90 nM
Cc1ccc2[nH]ccc2c1 [5-methylindole],EC50,[1],8.9 µM
Cc1ccc2cc[nH]c2c1 [6-methylindole],EC50,[1],9.1 µM
Cc1cccc2cc[nH]c12 [7-methylindole],EC50,[1],37.8 µM
"CCCCCN [Amylamine, amylamine]",EC50,[2],10.6 µM
"CCCCN [Butylamine, butylamine]",EC50,[2],73.5 µM
"NCCCCCN [Cadaverine, cadaverine]",ligand recognition by TARLL2a,[4],recognize
same,ligand recognition by mouse TAAR9,[5],can recognize
same,activation of TAAR13c,[6],activates
same,activation of TAAR9,[7],activation
same,activation of TAAR9,[8],activation
same,activation of TAAR9,[9],activation
same,activation of TAAR9,[10],activation
"NC1CCCC1 [Cyclopentylamine, cyclopentylamine]",EC50,[2],113 µM
"CCCCCCN [Hexylamine, hexylamine]",response of mouse TAAR1,[11],slight responses
same,EC50,[2],20.4 µM
same,ligand profile of TARLL4a,[2],ligand profile includes
"c1ccc2[nH]ccc2c1 [Indole, indole]",EC50,[1],18.9 µM
same,activation of TARLL1b,"[1]; fig. 4E, fig. S9D and E",can be activated
"CC(C)CCN [Isoamylamine, isoamylamine]",EC50,[12],300 µM and ~300 µM
same,EC50,[13],200 µM and ~200 µM
same,EC50,[2],141 µM
"CC(C)CN [Isobutylamine, isobutylamine]",EC50,[2],199 µM
"CC(C)N [Isopropylamine, isopropylamine]",EC50,[2],254 µM
same,ligand profile of TARLL4a,[2],ligand profile includes
"CN(C)CCCN(C)C [N,N,N',N'-tetramethyl-1,3-propanediamine, N,N,N′,N′-Tetramethyl-1,3-propanediamine]",EC50,[14],116 µM
same,ligand recognition by TARLL3h,[14],recognizes
"CN(C)CCCCN(C)C [N,N,N',N'-tetramethyl-1,4-butanediamine, N,N,N′,N′-tetramethyl-1,4-butanediamine]",EC50 of TARLL3h mutant Y3.33F relative to wild type receptor,[15],EC50 three times higher than wild type receptor
same,receptor activity of TARLL3h mutant Y3.33A,[16],completely eliminated the receptor activity
same,receptor activity of TARLL3h mutant D3.32A,[17],completely eliminated the receptor activity
same,EC50,[14],40.4 µM
same,ligand recognition by TARLL3h,[14],recognizes
"CC(C)N(C)C [N,N-dimethylisopropylamine]",EC50,[18],40.3 µM
same,EC50,[19],50 µM and ~50 µM
"CCCN [Propylamine, propylamine]",EC50,[2],133 µM
"NCCc1c[nH]c2ccc(O)cc12 [Serotonin, serotonin]",EC50,[11]; mTAAR1,14.4 µM
same,EC50,[20],390 nM
same,EC50,[21],830 nM and 800 nM
same,EC50,[22],2350 nM
same,EC50,[23],100 nM
same,EC50,[24],110 nM
same,EC50,[1],0.2 µM
NC1CCCCC1 [cyclohexylamine],ligand profile of TARLL4a,[2],ligand profile includes
CCCCCCCN [heptylamine],response of mouse TAAR1,[11],slight responses
same,ligand profile of TARLL4a,[2],ligand profile includes
CCCCCCCCN [octylamine],response of mouse TAAR1,[11],slight responses
NCCCCNCCCN [spermidine],ligand recognition by mouse TAAR9,[5],can recognize
same,activation of TAAR9,[7],activation
same,activation of TAAR9,[8],activation
same,activation of TAAR9,[9],activation
same,activation of TAAR9,[10],activation
NCCCNCCCCNCCCN [spermine],ligand recognition by TARLL2a,[4],recognize
same,ligand recognition by mouse TAAR9,[5],can recognize
same,activation of TAAR9,[7],activation
same,activation of TAAR9,[8],activation
same,activation of TAAR9,[9],activation
same,activation of TAAR9,[10],activation
